Laboratory results reported in patent publication US20260234217A1, “USE OF BMP RECEPTOR ALK1 INHIBITORS IN OSTEOARTHRITIS THERAPIES” (The Regents of the University of California, priority 2023, published 2026).
“Also recorded” adds a separate entry of the source.

B1: GDF11: GDF11 protein from Bio-techne/R&D, catalog 1958-GD, truncated active protein of 109 amino acids (protein, UniProt O95390 299-407, looked up)
Growth/differentiation factor …: NLGLDCDEHSSESRCCRYPLTVDFEAFGWDWIIAPKRYKANYCSGQCEYMFMQKYPHTHLVQQANPRGSAGPCCTPTKMSPINMLYFNDKQQIIYGKIPGMVVDRCGCS
modifications: Growth/differentiation factor 11

Assays:
AC cartilage = settings: post-traumatic OA model, Jaswal et al.; cited from earlier work
[1] = system: chondrocyte hypertrophy and MMP13 expression; settings: ex vivo and in vivo; cited from earlier work
[2] = system: bone marrow stromal cell-derived chondrocytes; settings: cited from earlier work
TGFbeta signaling = test: GDF11 injection into the knee joint of mice with established post-traumatic OA: TGFbeta signaling; type: in vivo, mouse; settings: data of FIG. 13
Description: FIG. 13. Growth differentiation factor 11 (GDF11, see, e.g., NCBI Reference Sequence: NP_005802.1) competes with BMP9/10 for binding to BMP type II receptors ACVRIIA or ACVRIIB, thereby preventing the association of BMP type I receptor ALK1 with ACVRIIA/B and decreasing BMP signaling. […] We tested this hypothesis by locally injecting GDF11 (50 ng/dose) into the knee joint space at mice with established post-traumatic OA. (A) Experimental Outline (B) Safranin-O/Fast Green (SOFG) Staining of sagittal sections of the knee joint, femur (top) and tibia (bottom) for proteoglycan (cartilage; red) and bone (green) at week 8 after DMM or Sham surgery. Mice were treated with either GDF11, or Phosphate Buffered Saline (PBS) after received surgery (n=5/group). 4-Week DMM mice were sacrificed 4 weeks after surgery and received no treatment (n=6). AC damage indicated by dotted line. (C-D) Osteoarthritis Research Society International (OARSI) scoring of AC damage in the (C) medial tibial plateau and (D) medial femoral condyle in representative sections of each treatment at week 4 or 8 after surgery. All data are shown as mean bar+/−standard deviation *p<0.05. Data analysis performed was one-way ANOVA. Scale 250 uM. […]

[3] = system: articular cartilage of DMM mice; test: DMM model of post-traumatic OA: Safranin-O/Fast Green staining and OARSI scoring of articular cartilage damage; type: in vivo, mouse; settings: mice with established osteoarthritis, 50 ng/dose injected into knee joint space
Description: FIG. 13. Growth differentiation factor 11 (GDF11, see, e.g., NCBI Reference Sequence: NP_005802.1) competes with BMP9/10 for binding to BMP type II receptors ACVRIIA or ACVRIIB, thereby preventing the association of BMP type I receptor ALK1 with ACVRIIA/B and decreasing BMP signaling. […] We tested this hypothesis by locally injecting GDF11 (50 ng/dose) into the knee joint space at mice with established post-traumatic OA. (A) Experimental Outline (B) Safranin-O/Fast Green (SOFG) Staining of sagittal sections of the knee joint, femur (top) and tibia (bottom) for proteoglycan (cartilage; red) and bone (green) at week 8 after DMM or Sham surgery. Mice were treated with either GDF11, or Phosphate Buffered Saline (PBS) after received surgery (n=5/group). 4-Week DMM mice were sacrificed 4 weeks after surgery and received no treatment (n=6). AC damage indicated by dotted line. (C-D) Osteoarthritis Research Society International (OARSI) scoring of AC damage in the (C) medial tibial plateau and (D) medial femoral condyle in representative sections of each treatment at week 4 or 8 after surgery. All data are shown as mean bar+/−standard deviation *p<0.05. Data analysis performed was one-way ANOVA. Scale 250 uM.
Mice (C57BL/6J) were purchased from The Jackson Laboratory. All mice were housed on a 12-hour light/dark cycle with unrestricted access to standard mouse food and water. The DMM model of injury induced OA was performed on mice at 12 weeks of age by opening the joint capsule and transecting the medial meniscotibial ligament in the right knee, destabilizing the medial meniscus(48). A sham operation was performed on the left knee of each mouse by observing the medial meniscotibial ligament but not transecting it. Mice were administered carprofen 5 mg/kg (Zoetis; 1041283) subcutaneously 30 minutes prior to surgery, immediately post-surgery, and 24 hours post-surgery to minimize pain.
Treatments were initiated either 1 day after DMM surgery once a week for 8 weeks, or 1 month after DMM surgery twice a week for 4 weeks. Mice were sacrificed at 20 weeks of age (2 months after surgery). To understand the level of articular cartilage damage 1 month after DMM surgery, a cohort of mice was sacrificed at 16 weeks old (FIG. 4).
Knee joint samples were harvested and fixed in 4% Paraformaldehyde for 3 days, and subsequently decalcified in formic acid (Statlab; 1414-32) for 3 days and embedded in paraffin. Sagittal sections 7 micrometers in thickness were taken and stained using Safranin-O (Sigma-Aldrich; S8884-25G), fast green (Sigma-Aldrich; F7258-25G), and hematoxylin (Fisherbrand; 245-656) using a standard histology protocol. Images were taken with the Olympus BX60 brightfield microscope using a 10× objective lens. Representative sections throughout the medial and lateral portion of side were chosen for histological analysis, resulting in 5 sections being imaged for both portions of the joint.
The 10 total sections per joint chosen for histology received randomized sample numbers and were given to three independent researchers who scored the level of cartilage damage based on OARSI guidelines (84). OARSI scores were analyzed with Prism 9 Software (GraphPad) using two-way ANOVA and Tukey's multiple comparisons test post-hoc. Scoring was performed by at least three experienced investigators blinded to treatment/genotype. Scores were averaged for the medial tibial plateau, medial femoral condyle, lateral tibial plateau, and lateral femoral condyle for each sample.

| Molecule | protection of AC cartilage (AC cartilage) | chondrocyte hypertrophy and MMP13 expression [1] | chondrocyte hypertrophy / chondrogenic hypertrophic markers in vitro [2] | TGFbeta signaling (TGFbeta signaling) | degeneration of articular cartilage [3] |
| --- | --- | --- | --- | --- | --- |
| c1ccc2c(-c3cnn4cc(-c5ccc(N6CCNCC6)cc5)cnc34)ccnc2c1 [LDN-193189] | protective | prevented | not able to prevent; also recorded: no reduction | – | – |
| B1 | – | – | – | increase TGFbeta signaling | attenuate the degeneration of articular cartilage |
